# Measurements as given in publication PMC6582486, “Stapled EGFR peptide reduces inflammatory breast cancer and inhibits additional HER-driven models of cancer” (Journal of Translational Medicine, 2019).
# Like-named read-outs stand apart in the source and are kept apart here. Marks after values point to notes of the source that are not given here. Where a SMILES comes first, the peptide text is derived from it. Bridges are numbered along the chain shown (N, C = ends). [ ]: non-standard residue; d: D form. R8 = C=CCCCCCC[C@@](C)(N)C(=O)O; S5 = C=CCCC[C@](C)(N)C(=O)O
# Legend:
# [1] = tested on: MDA-MB-468 breast cancer cells; type: cell-based, human; settings: for increase in efficacy over unstapled EJ1: MDA-MB-468 cell viability, ratio of IC50
# Description: Fig. 1 Hydrocarbon stapling leads to increased EJ1 activity in comparison to HER-directed monoclonal therapies. a EJ1 sequence with PTD4 domain (underlined) corresponding to EGFR juxtamembrane domain sequence 643–663. Stabilized alpha helix (SAH) variations 1–5 beneath, with asterisks (*) indicating sites of staple. Control peptide (CP) with altered residues indicated by double underline. Stapled control (5) asterisks (*) indicate sites of staple. b Cartoon representation of EJ1 structure, with staple variation 5 highlighted. Positively charged residues indicated in blue, negatively charged residues in red. c Cartoon representation of CP structure, with staple variation highlighted. d Cell viability assay performed in MDA-MB-468 cells after 24 h comparing unstapled EJ1 versus staple variations SAH1, SAH4, and SAH5, with increasing concentrations. e Visualization of MDA-MB-468 cells untreated, treated with 10 µM EJ1, and 10 µM SAH5-EJ1 after 60 min. Scale bars represent 50 µm. f–h Cell viability assay performed in MDA-MB-468, MCF10A, or CHO cells over 3 days comparing treatment with Sapitinib (blue lines), SAH5-EJ1 (red lines), and SAH5-CP (grey lines). […] Data shown in d, f, g–i represent mean ± percent difference of assays performed in triplicate 1000–3000 cells were plated in 96-well plates (Falcon; Corning, NY) and allowed to adhere for 24–48 h prior to therapeutic introduction. Compounds were added and incubated on cells for 3 days in serum-containing media, followed by 2 h treatment with MTT (Sigma M5655) with the resulting formazan solubilized in DMSO. Absorbance was read at 540 nm by plate reader (uQuant, Bio-Tek Instruments). P-values were calculated from a one-way ANOVA.
# [2] = tested on: luciferized murine glioma (Ink4a/ARF-/-; hEGFRvIII); assay: Orthotopic EGFRvIII glioblastoma mouse model, survival; type: in vivo, nude mice; settings: SAH5-EJ1 10 µg/g IV (N = 4), control peptide N = 6
# Method: Patient samples used were provided by the Biobank Core Facility at Barrow Neurological Institute. Samples were de-identified and conformed to the Biobank IRB protocol. Patient-derived cell lines (GB16 and GB71) were established from resected primary GBM tumor tissue. Tissue was processed using the Gentle MACS Dissociator and Tumor Tissue Dissociation kit (Miltenyi Biotec Inc.; Auburn, CA). Animal husbandry was performed according to the guidelines of St. Joseph Hospital and Medical Center and Barrow Neurological Institute under the Institutional Animal Care and Use Committee-approved protocol. Five- to six-week-old CrTac: NCr-Foxn1^nu nude mice (Taconic Biosciences; Hudson, NY) were used for in vivo orthotropic transplant of luciferized murine glioma model (Ink4a/ARF^−/−; hEGFRvIII). For orthotopic transplants, 2 μL of dissociated cells at a density of 100,000 cells/μL were injected in the right striatum, as described previously. In vivo tumor growth was measured by IVIS xenogen bioluminescence imaging (BLI) system after IP injection of 150 mg/kg Luciferin (Gold Biotechnology; St, Louis, MO) every week after 1-month post-surgery. […]
# Fig. 2 SAH5-EJ1 enters cells, colocalizes with mitochondria, and survives in vivo, resulting in glioblastoma-derived cell death and glioma mouse model survival. […] H Luminescence distribution throughout organs. […]
# [3] = 28-day toxicity study: clinical chemistry; type: in vivo, CD-1 mice; settings: day 29, mean ± SD
# Method: Toxicology was performed by IITRI. The study was conducted in compliance with the US Food and Drug Administration (FDA) good laboratory practice (GLP) Regulations (Code of Federal Regulations Title 21 Part 58) to evaluate the toxicokinetics, local tolerability, immunogenicity, and potential toxicity of SAH5-EJ1 following three times per week intravenous (IV) dosing for 28 days in mice. Male and female CD-1 IGS [Crl:CD1(ICR)] mice (135 per sex) were received from Wilmington, MA-based Charles River Laboratories, Inc.’s Kingston facility (Stone Ridge, NY).
# CHO cells = assay: Cell viability assay (MTT), CHO; type: cell-based, Chinese Hamster; settings: 5 µM (Fig. 1h)
# Description: Fig. 1 Hydrocarbon stapling leads to increased EJ1 activity in comparison to HER-directed monoclonal therapies. a EJ1 sequence with PTD4 domain (underlined) corresponding to EGFR juxtamembrane domain sequence 643–663. Stabilized alpha helix (SAH) variations 1–5 beneath, with asterisks (*) indicating sites of staple. Control peptide (CP) with altered residues indicated by double underline. Stapled control (5) asterisks (*) indicate sites of staple. b Cartoon representation of EJ1 structure, with staple variation 5 highlighted. Positively charged residues indicated in blue, negatively charged residues in red. c Cartoon representation of CP structure, with staple variation highlighted. d Cell viability assay performed in MDA-MB-468 cells after 24 h comparing unstapled EJ1 versus staple variations SAH1, SAH4, and SAH5, with increasing concentrations. e Visualization of MDA-MB-468 cells untreated, treated with 10 µM EJ1, and 10 µM SAH5-EJ1 after 60 min. Scale bars represent 50 µm. f–h Cell viability assay performed in MDA-MB-468, MCF10A, or CHO cells over 3 days comparing treatment with Sapitinib (blue lines), SAH5-EJ1 (red lines), and SAH5-CP (grey lines). […] Absorbance was read at 540 nm by plate reader (uQuant, Bio-Tek Instruments). P-values were calculated from a one-way ANOVA.
structure (smiles),measurement,setting,value
CC[C@H](C)[C@H](NC(=O)[C@H](Cc1c[nH]cn1)NC(=O)[C@H](CCCNC(=N)N)NC(=O)[C@H](CCCNC(=N)N)NC(=O)[C@H](CCCNC(=N)N)NC(=O)[C@H](CCSC)NC(=O)[C@H](Cc1ccccc1)NC(=O)[C@H](C)NC(=O)[C@H](CCCNC(=N)N)NC(=O)[C@H](C)NC(=O)[C@H](CCC(N)=O)NC(=O)[C@H](CCCNC(=N)N)NC(=O)[C@H](C)NC(=O)[C@H](C)NC(=O)[C@H](C)NC(=O)[C@H](CCCNC(=N)N)NC(=O)[C@H](C)NC(=O)[C@@H](N)Cc1ccc(O)cc1)C(=O)N[C@H](C(=O)N[C@@H](CCCNC(=N)N)C(=O)N[C@@H](CCCCN)C(=O)N[C@@H](CCCNC(=N)N)C(=O)N[C@]1(C)CCCCCCC=CCCC[C@@](C)(C(=O)N[C@@H](CCCNC(=N)N)C(=O)N[C@@H](CCC(=O)O)C(N)=O)NC(=O)[C@H](CCC(N)=O)NC(=O)[C@H](CC(C)C)NC(=O)[C@H](CC(C)C)NC(=O)[C@H](CCCNC(=N)N)NC(=O)[C@H](CCCNC(=N)N)NC(=O)[C@H](CC(C)C)NC1=O)C(C)C [SAH5-EJ1] (H-YARAAARQARAFMRRRHIVRKR[R8]LRRLLQ[S5]RE-NH2; staple 23-30),IC50,[1]; 24 h,2500 nM
same,cell death,"[1]; MDA-MB-468, 4 µM, after 1 day",complete cell death
same,increase in efficacy over unstapled EJ1,[1],more than 7 fold
same,increase in efficacy over unstapled EJ1,[1]; listed as SAH-EJ1,7.2 fold
same,mice alive after 72 days,[2],75%
same,ALP,"[3]; female, 5 mg/kg, N = 5",88 ± 33.2 IU/L
same,ALT,"[3]; female, 5 mg/kg, N = 5",79 ± 35.0 IU/L
same,AST,"[3]; female, 5 mg/kg, N = 5",80 ± 8.3^a IU/L
same,BUN,"[3]; female, 5 mg/kg, N = 5",19 ± 2.2 mg/dL
same,TBIL,"[3]; female, 5 mg/kg, N = 5",0.2 ± 0.05 mg/dL
same,ALP,"[3]; female, 10 mg/kg, N = 5",70 ± 48.4 IU/L
same,ALT,"[3]; female, 10 mg/kg, N = 5",61 ± 18.5 IU/L
same,AST,"[3]; female, 10 mg/kg, N = 5",83 ± 19.0 IU/L
same,BUN,"[3]; female, 10 mg/kg, N = 5",19 ± 3.0 mg/dL
same,TBIL,"[3]; female, 10 mg/kg, N = 5",0.1 ± 0.05 mg/dL
same,ALP,"[3]; female, 15 mg/kg, N = 4",62 ± 18.4 IU/L
same,ALT,"[3]; female, 15 mg/kg, N = 4",90 ± 27.2 IU/L
same,AST,"[3]; female, 15 mg/kg, N = 4",93 ± 12.5 IU/L
same,BUN,"[3]; female, 15 mg/kg, N = 4",22 ± 2.5 mg/dL
same,TBIL,"[3]; female, 15 mg/kg, N = 4",0.1 ± 0^b mg/dL
same,ALP,"[3]; male, 5 mg/kg, N = 4",68 ± 13.8 IU/L
same,ALT,"[3]; male, 5 mg/kg, N = 4",124 ± 71.5 IU/L
same,AST,"[3]; male, 5 mg/kg, N = 4",92 ± 28.6 IU/L
same,BUN,"[3]; male, 5 mg/kg, N = 4",26 ± 2.2 mg/dL
same,TBIL,"[3]; male, 5 mg/kg, N = 4",0.2 ± 0.05 mg/dL
same,ALP,"[3]; male, 10 mg/kg, N = 5",73 ± 19.7 IU/L
same,ALT,"[3]; male, 10 mg/kg, N = 5",96 ± 28.3 IU/L
same,AST,"[3]; male, 10 mg/kg, N = 5",83 ± 23.6 IU/L
same,BUN,"[3]; male, 10 mg/kg, N = 5",31 ± 7.3 mg/dL
same,TBIL,"[3]; male, 10 mg/kg, N = 5",0.2 ± 0.04 mg/dL
same,ALP,"[3]; male, 15 mg/kg, N = 4",58 ± 10.5 IU/L
same,ALT,"[3]; male, 15 mg/kg, N = 4",67 ± 32.3 IU/L
same,AST,"[3]; male, 15 mg/kg, N = 4",63 ± 13.5 IU/L
same,BUN,"[3]; male, 15 mg/kg, N = 4",23 ± 2.9 mg/dL
same,TBIL,"[3]; male, 15 mg/kg, N = 4",0.2 ± 0.05 mg/dL
same,cell viability,CHO cells,67%
